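How tested: cells in 96-well plates exposed to compound for 48 hours at five concentrations. GI50 marks 50% less growth. TGI: total growth inhibition.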

Results on 13 compounds are retold here after PubChem BioAssay (NCI).

Some test systems named below: EKVX NSCLC; HOP-18 NSCLC; KM20L2 colon; M19-MEL melanoma; OVCAR-5 ovarian; BT-549 breast; DU-145 prostate; PC-3 prostate; T-47D breast.
Test in all cases: NCI-60 cell line screen, 48 h

Turning to `COC(=O)C1C=CCON2CCc3c(n(S(=O)(=O)c4ccccc4)c4ccccc34)C12` (stereo unspecified), the TGI in the test on EKVX NSCLC was more than 84.8 µM; in the test on HOP-18 NSCLC, more than 100 µM; in the test with KM20L2 colon, more than 63.2 µM; in the test with M19-MEL melanoma, more than 70.5 µM; in the test on OVCAR-5 ovarian, more than 100 µM.
In the case of `Fc1ccc(Nc2nc3ccccc3c3occc23)cc1`, the GI50 in the test with BT-549 breast was 15.6 µM; with DU-145 prostate, 14.4 µM; with EKVX NSCLC it was 15.2 µM; in the test with OVCAR-5 ovarian it was 10.1 µM; in the test with PC-3 prostate, 7.07 µM; in the test with T-47D breast, 0.135 µM. The TGI with BT-549 breast was 28.9 µM; with DU-145 prostate, 27.5 µM; in the test with EKVX NSCLC, 29.5 µM; with OVCAR-5 ovarian, 21.8 µM; in the test on PC-3 prostate, 20 µM.
On to `Nc1ncnc2c1ccn2[C@@H]1O[C@H]([C@H](O)c2ccc(Cl)c(F)c2)[C@@H](O)[C@H]1O`, for which the GI50 is more than 100 µM in the test with BT-549 breast; more than 100 µM in the test on DU-145 prostate; more than 100 µM in the test with EKVX NSCLC; more than 100 µM in the test with OVCAR-5 ovarian; more than 100 µM in the test with PC-3 prostate; 23.5 µM in the test on T-47D breast. Moreover, the TGI in the test with BT-549 breast, in the test with DU-145 prostate, in the test on EKVX NSCLC, in the test on OVCAR-5 ovarian, in the test on PC-3 prostate and in the test with T-47D breast was more than 100 µM throughout.
As to `CCn1ccc(NS(=O)(=O)c2ccc(N)cc2)nc1=O`, the GI50 in the test with BT-549 breast, in the test on DU-145 prostate, in the test with EKVX NSCLC, with OVCAR-5 ovarian, in the test on PC-3 prostate and in the test on T-47D breast was more than 100 µM throughout. Also, the TGI in the test on BT-549 breast, in the test on DU-145 prostate, in the test on EKVX NSCLC, in the test with OVCAR-5 ovarian, in the test with PC-3 prostate and in the test on T-47D breast was more than 100 µM throughout.
Regarding `C1C[OH+]CC[OH+]CCNCC[OH+]CC[OH+]CCN1.Cl.[Cl-].[Pt+4]`, the GI50 with EKVX NSCLC, in the test on HOP-18 NSCLC and in the test on KM20L2 colon was more than 100 µM each time. The TGI in the test on EKVX NSCLC, with HOP-18 NSCLC and in the test with KM20L2 colon was more than 100 µM in each case.
Turning to `CCc1cccc(C)c1NC(=S)NC(=O)c1ccccc1C(=O)NC(=S)Nc1c(C)cccc1CC`, the TGI with EKVX NSCLC, in the test on HOP-18 NSCLC, with KM20L2 colon, with M19-MEL melanoma and with OVCAR-5 ovarian was more than 100 µM throughout.
Turning to `C#Cc1cccc(NC(=O)c2ccc(NC(=O)CCl)cc2)c1`, the GI50 in the test on BT-549 breast is 11.1 µM; in the test with DU-145 prostate it was more than 82.5 µM; in the test on EKVX NSCLC it was more than 82.5 µM; in the test with OVCAR-5 ovarian it was 21.4 µM; with PC-3 prostate it was 15.4 µM; with T-47D breast, 31.2 µM. Further, the TGI is 23.9 µM in the test on BT-549 breast; more than 82.5 µM in the test on DU-145 prostate; more than 82.5 µM in the test with EKVX NSCLC; more than 82.5 µM with OVCAR-5 ovarian; 60.4 µM in the test on PC-3 prostate; more than 82.5 µM with T-47D breast.
As to `Cc1ccc(S(=O)(=O)N2CCc3ccc(O)c4c3C2Cc2ccc3c(c2-4)OCO3)cc1` (stereo unspecified), the GI50 in the test with BT-549 breast is 0.822 µM; with DU-145 prostate it was 1.27 µM; in the test on EKVX NSCLC it was 4.34 µM; with OVCAR-5 ovarian, 3.19 µM; in the test on PC-3 prostate it was 0.808 µM; with T-47D breast, 0.968 µM. The TGI with BT-549 breast was 12.5 µM; with DU-145 prostate it was 8.63 µM; with EKVX NSCLC, more than 100 µM; in the test with OVCAR-5 ovarian, 45.8 µM; in the test with PC-3 prostate, 19.5 µM; with T-47D breast, 51 µM.
`CSc1ccc(C(=O)/C=C/c2ccccc2Cl)cc1`: the GI50 is 15.4 µM in the test with BT-549 breast; 13.9 µM in the test on DU-145 prostate; 19.7 µM in the test on EKVX NSCLC; 16.1 µM with OVCAR-5 ovarian; 16.5 µM with PC-3 prostate; 23.5 µM with T-47D breast. Moreover, the TGI in the test with BT-549 breast is 32.9 µM; in the test on DU-145 prostate, 29 µM; in the test on EKVX NSCLC, 37 µM; with OVCAR-5 ovarian it was 31.6 µM; with PC-3 prostate, 32.4 µM; in the test on T-47D breast, more than 100 µM.
Consider `COc1cccc(Nc2nccc(-c3cnn4ncccc34)n2)c1`, for which the GI50 in the test with BT-549 breast was 0.0714 µM; in the test on DU-145 prostate, 0.0884 µM; in the test on EKVX NSCLC it was 0.0709 µM; in the test with OVCAR-5 ovarian, 0.0812 µM; with PC-3 prostate it was 0.0652 µM; in the test with T-47D breast, 0.0776 µM. The TGI in the test on BT-549 breast was 6.71 µM; with DU-145 prostate, more than 25 µM; in the test with OVCAR-5 ovarian it was more than 25 µM; in the test with PC-3 prostate, 1.32 µM; in the test with T-47D breast it was 0.428 µM.
For the compound `FC(F)(F)c1cc(Nc2ccc3cc(OCCCN4CCOCC4)ccc3n2)ccc1Cl`, the GI50 is 1.74 µM with BT-549 breast; 3.17 µM in the test on DU-145 prostate; 2.3 µM in the test on EKVX NSCLC; 2.21 µM with OVCAR-5 ovarian; 1.09 µM with PC-3 prostate; 2.51 µM in the test on T-47D breast. Moreover, the TGI in the test on BT-549 breast was found to be 4.07 µM; in the test on DU-145 prostate, 13.3 µM; with EKVX NSCLC, 6.21 µM; with OVCAR-5 ovarian it was 5.84 µM; with PC-3 prostate it was 2.68 µM; in the test with T-47D breast, 7.51 µM.
Take `C=C1Cc2cc(OC)c(OC)c(OC)c2-c2ccc(SC)c(=O)cc21`: the TGI turned out to be 18.8 µM with EKVX NSCLC, 11.9 µM in the test with HOP-18 NSCLC, 2.42 µM in the test on M19-MEL melanoma and 12.6 µM in the test with OVCAR-5 ovarian.
In the case of `Cc1cc(Cl)cc(Cc2cc(Cl)cc(C)c2O)c1O`, the GI50 in the test on BT-549 breast was 2.46 µM; with DU-145 prostate, 3.47 µM; with EKVX NSCLC it was 3.62 µM; with OVCAR-5 ovarian, 3.35 µM; in the test with PC-3 prostate, 2.55 µM; in the test with T-47D breast, 3.64 µM. In addition, the TGI in the test with BT-549 breast was 7.02 µM; in the test on DU-145 prostate it was 17 µM; in the test on EKVX NSCLC, 68.8 µM; with OVCAR-5 ovarian it was 12.3 µM; with PC-3 prostate, 8.68 µM; in the test with T-47D breast it was more than 100 µM.
